Source: patent US12133838B2, “Homotaurine-enriched compositions and methods of use for animal health” (FB Maria srl, priority 2015, dated 2024)

Tests used:
[1] = test system: young adult dogs; assay: cognitive learning test in a maze, young adult dogs; type: in vivo, dog; conditions: young dogs (under 6 years of age), homotaurine 1 g/subject PO SID
Excerpt: (§1) The experiment began by selecting two groups of elderly dogs (age more than 10 years, 16 subjects per group) and two groups of young adult dogs (between 3 and 6 years of age, 6 subjects per group), who were divided randomly balancing them per age, seniority, and size. The dogs underwent a cognitive learning tests (Spatial reversal learning is impaired by aging in pet dogs, P. Mongillo et al., Age, 2013, 35 (6): 2273-2282), in a simple maze built to this trial. Passing the test consisted in the dog's ability to learn to get out of the labyrinth in the direction that he himself had chosen in the first successful attempt. The number of attempts has been the test score: the lower the number of attempts, better cognitive performance. Immediately after the test, two groups of dogs (one old and one young) started to receive food integration of homotaurine capsules. Homotaurine at was administered orally once daily (PO SID) at a dose of 1 g/subject. After 4 months of homotaurine supplementation, initial learning test was repeated, with the same modalities of the initial test.

[2] = test system: elderly dogs; assay: cognitive learning test in a maze, elderly dogs; type: in vivo, dog; conditions: for Average number of wrong tries of the aged dogs able to pass the learning test (average score) / Percentage of the aged dogs able to pass the learning test: dogs more than 10 years
Excerpt: as §1, with “After 15 days the dogs underwent a memory test (learning result application of first test) and, if they have passed the test, to a subsequent reverse learning test, which consisted in learning to exit the labyrinth from the opposite direction to that previously learned within a defined number of trials. After” for “After”, “test. The first evaluable results regarding the comparison between the cognitive learning tests, carried out on two groups of dogs over 10 years of age, a period in which aging-correlated brain behavior changes can be observed.” for “test.”

[3] = 1° test, before start of homotaurine
[4] = 2° test, after 4 months of homotaurine 1 g/subject PO SID

SMILES: NCCCS(=O)(=O)O [homotaurine, 3-amino-1-propanesulfonic acid]
- change of average score [1]: −2.6
- Average number of wrong tries of the aged dogs able to pass the learning test (average score) [2, 3]: 6.67
- Percentage of the aged dogs able to pass the learning test [2, 3]: 75%
- Average number of wrong tries of the aged dogs able to pass the learning test (average score) [2, 4]: 5.67
- Percentage of the aged dogs able to pass the learning test [2, 4]: 75%
- change of average score, second versus first test ([2]; aged dogs, about four months of homotaurine 1 g/subject PO SID): −1.0
- failures in the learning test ([2]; first test, before start of homotaurine, aged dogs): 25%
- failures in the learning test ([2]; second test, about four months later, 1 g/subject PO SID, aged dogs): 25%
